The text below walks through data of US20040014721A1, “Method for using tethered bis(polyhydroxyphenyls) and O-alkyl derivatives thereof in treating inflammatory conditions of the central nervous system” (Oklahoma Medical Research Foundation, priority 2002, published 2004).

Usually IC50 stands for the point on the concentration scale where inhibition reaches its midpoint.

The test system of series [1] is prostaglandin E2 (PGE2) release in TNFα-stimulated EOC-20 cells. Nature of the series: PGE2 release in TNFα-stimulated EOC-20 cells. The class given is cell-based, mouse. Conditions: submicromolar concentrations. The text has this: Prostaglandin E2, a product of the cyclooxygenation of arachidonic acid released from membrane phospholipids, plays major roles in regulating brain injury and inflammation. Although prostaglandin E2 has frequently been considered as a possible inducer of brain damage and degeneration, it may exert beneficial effects in the CNS. Indeed, in spite of its classic role as a pro-inflammatory molecule, several recent in vitro observations indicate that prostaglandin E2 can inhibit microglial activation.

Series [2] has as its system G93A-SOD1 mice. Nature of the series: Immunochemistry of lumbar spinal cord of G93A-SOD1 mice on oral NDGA (GFAP, F4/80). Type of series: in vivo, mouse. The method, then: Mice were anesthetized with pentobarbital and perfused transcardially with 4% paraformaldehyde in phosphate buffer. The lumbar region (L1-L5) was processed for paraffin embedding. Immunochemistry was performed on […] sections, using commercially available antibodies, and tissue sections were routinely counterstained with hematoxylin and eosin. Polyclonal anti-SOD1 IgG was purchased from Chemicon (Temecula, Calif.). Polyclonal anti-5LOX IgG was purchased from Cayman Chemical (San Diego, Calif.). Monoclonal anti-5LOX was obtained from Transduction Laboratories (Lexington, Ky.). Polyclonal antibody against glial fibrillary acidic protein (GFAP) was purchased from Research Diagnostics International (Flanders, N.J.). FITC-conjugated anti-F4/80, which recognizes a microglial cell surface antigen (Drachman et al., 2002), was purchased from Serotec (Raleigh, N.C.). Positive control for 5LOX Western blots was SL-29 fibroblast lysate (Transduction Laboratories, provided with the antibody). Electrophoresis was performed on 4-20% gradient polyacrylamide gels, and bands were visualized with chemiluminescence detection reagents (Amersham).
Microglial proliferation is another neuroinflammatory feature inherent to motoneuron disease in the G93A-SOD1 mouse (Drachman et al., 2002). […]

In another series the test system is rats. Conditions: rat, in vivo, po; cited from earlier work.
A further series deals with Aβ-induced neurotoxicity. Nature of the series: Rat model of Aβ-induced neurotoxicity (ICV Aβ40 + Aβ42 + ApoE4), radial eight-arm maze. Type of series: in vivo, Sprague-Dawley male rats. Conditions: 0.25% NDGA diet. The text has this: In this model, rats are infused intracerebroventricularly (ICV) with Aβ adsorbed to an apo-lipoprotein carrier. Thus, to determine whether dicatechol (e.g., microglial inhibitor nordihydroguaiaretic acid) blocks Aβ-induced neurotoxicity the Frautschy model was used. […] Each group consisted of six rats fed either a control or an NDGA supplemented diet (Table VII).
Rats were trained on a radial eight-arm maze as described previously. After they achieved 0-2 error level, they underwent surgery for implantation of the cannulae and osmotic pumps. Twenty-four hours after surgery, they were started on the dietary treatment.
Time and error scores from six trials for each experimental group were subjected to analysis of variance (ANOVA). Tucky-Kramer test for multiple comparisons was used as a posthoc test. Performance in the memory task was analyzed separately over all six trials.

A short description of another series: Water solubility. The class given is physicochemical.
A further series deals with LnCAP Production of PSA. The experiment in a line: LnCAP production of PSA (ELISA). Type of series: cell-based. The following applies: Homo sapiens, LNCaP, 24 h. The method, then: LnCAP prostate cancer cells were be cultured according to established methods (Horoszewicz et al., 1983). These cells product prostate-specific antigen (PSA), a serine protease that predicts metastatic potential ([…] et al., 2000). […] Each drug was tested in triplicate at each concentration. Medium was removed and tested for PSA concentration using a commercially available enzyme-linked immunosorbent assay (ELISA). Viability was determined in the adherent cells using the MTT assay.
In general terms: An ELISA detects its analyte on a solid surface through an enzyme-linked reagent.

Series [3] deals with G93A-SOD1 mice. On the procedure: NDGA was formulated into AIN93G laboratory mouse chow at 2500 ppm (approximately […] intake/mouse/day). […] G93A-SOD1 mice and nontransgenic littermates were fed this NDGA-containing diet, or a control diet, beginning at 90 D of age. An observer blinded to the treatment groups tested the animals on the rotarod task at 100 D and every 5 days thereafter. […] This is a very important point, as most forms of human ALS are sporadic and prophylactic treatment is not practical.

The test system of series [4] is TNFα-Stimulated NO2^− Production in EOC-20 Cells. The experiment in a line: TNFα-stimulated nitrite (NO2−) production in EOC-20 microglial cells, Griess assay. Type of series: cell-based, mouse. On the procedure:
Cells were cultured in 24 well plates until confluent then treated with test agent, which was dissolved at 100× final concentration in dimethylsulfoxide (DMSO), or with vehicle only. Thirty minutes after treatment with test agent, cells were treated with 10 ng/mL recombinant mouse TNFα (Pharmingen, San Diego, Calif. USA). […] Each compound was tested at 100 μM, 20 μM, 4 μM, 0.8 μM and 0 μM in the presence of TNFα. Four wells of cells were used for each concentration of test agent.
Lower IC50 values indicate improved efficacy. FIG. 2 illustrates the principle of the measurement using NDGA as an example test agent. In order to determine viability, cell culture medium was replaced with phenol-free DMEM (Gibco) containing 20 μL/mL of MTT viability reagent (Promega). […] Control cells were taken to indicate 100% viability and intermediate values of MTT reduction were scaled to percentage of control. For each compound, an LD50 value was determined by extrapolation through sublethal concentrations. This value represents the concentration that reduced the MTT viability parameter by 50%.
In general terms: The Griess reaction detects nitrite, a stable product of nitric oxide.

SMILES strings stand for the structures. Entries after “also recorded” stand apart in the source; their conditions may differ.

As to `C[C@H](Cc1ccc(O)c(O)c1)[C@@H](C)Cc1ccc(O)c(O)c1` [NDGA, 1,4-bis (3,4-Dihydroxyphenyl)-2,3-dimethylbutane], the “inhibition of prostaglandin E2 (PGE2) release” value in series [1] is listed as “effective at submicromolar concentrations”. In series [1] (listed as NGDA), the “inhibition of prostaglandin E2 (PGE2) release” value was “effectively inhibits prostaglandin E2 (PGE2)”. Further, the “F4/80-positive microglia, lumbar spinal cord” value in the series on G93A-SOD1 mice [2] (120 D of age) is reported as “diminished the number of F4/80-positive microglia”. For the same compound, in the series with G93A-SOD1 mice [2] (120 D old mice), the “astrogliosis (GFAP-positive astrocytes), lumbar spinal cord” value is given as “significantly diminished astrogliosis; also recorded: significantly decreased the number of GFAP-positive astrocytes”. The LD50 result in the series with rats is “more than 2000 mg/kg”. The “working memory errors and latency” value with Aβ-induced neurotoxicity (day 25) was “significant decrease in the number of working memory errors and latency”. Besides, the reference errors entry in the series on Aβ-induced neurotoxicity (day 25 and day 30, not significant) is “suppressed reference errors”. In addition, the “water solubility” value in the series “Water solubility” is on record as “limited water solubility”. The IC50 with LnCAP Production of PSA was found to be 15 µM. In the series on G93A-SOD1 mice [3] (2500 ppm in chow from 90 D), the “RR (survival, logrank analysis)” value is listed as 0.27 and the “median age of death” value is 140 D. In the series on G93A-SOD1 mice [3] (mouse, in vivo), the “pathological effects at necropsy” value was “no pathological effects of the drug were observed” and the weight changes entry is recorded as “No weight changes were observed”. In the series on G93A-SOD1 mice [3] (oral), the “extension of paralytic phase (onset of paralysis to death)” value is on record as “approximately 40%” and the “rotarod performance” value was “significantly improved rotarod performance”. In the series on G93A-SOD1 mice [3] (oral NDGA), the “Onset of frank paralysis, mean ± SD” value was determined as 121 ± 7.1 D; the “Onset of frank paralysis, median” value was 120 D; the “Time between onset and death, mean ± SD” value is reported as 16.5 ± 7.9 D; the “Time between onset and death, median” value is recorded as 14 D. Further, in the series on G93A-SOD1 mice [3] (oral, from 90 D), the “extension of median lifespan” value is 13 D and the “prolongation of lifespan after start of treatment” value is given as 32%. Moreover, the “NO2− suppression at 800 nM” value in series [4] (800 nM) was “Significant NO2^− suppression”. Besides, the IC50 in series [4] (Mus musculus, read-out: IC50) was in the range of 3 to 5 µM. For the same compound, the “potency relative to minocycline” value in series [4] (fold more potent than minocycline) is on record as “approximately 16 times”.
